“And” between values parts separate entries of the source, which are not always exact repeats. Equal values may be shown once.
How the values were obtained:
[1] = tested on: female rabbits; test: Drug release rate and efficacy in vivo, intravaginal medicated rubber rings; parameters: species or system rabbit; conditions: vaginal ring 500 mg, 20% W/W; for Amount of sodium n-tetradecyl sulfate released. (μg. per day): per animal; for No. of Embryos (per animal): sulfate
Method: Dimethylpolysiloxane rods (4 mm. diameter) weighing 500 mg. and containing 20% (W/W) sodium n-tetradecyl sulfate (prepared by Example 3, Method B, lot no. 225-3) are formed into a circle of approximately 20 mm. diameter. The rings are inserted into the vagina of female rabbits and are held in place by sutures. The rabbits are bred either 7 or 32 days after insertion of the rings. Eleven days after breeding, the animals are sacrificed and the genital system examined for pregnancy. The rings are removed, washed, and extracted with methanol (24 hour continuous,) to remove the remaining sodium n-tetradecyl sulfate. The amount of active compound is determined by the methylene blue method, as described in Part A, above. The amount of sodium n-tetradecyl sulfate remaining in the circular rod is subtracted from the original amount present, and the difference is assumed to be the amount released over the time period.

[2] = tested on: sperm; test: Standard in vitro spermicidal tests (kill or immobilize sperm); assay type: cell-based; conditions: standard in vitro tests: ability to kill or immobilize sperm
Description: The alkyl or alkenyl sulfate salts have surface-active properties, and the sodium salts of dodecyl sulfate (lauryl sulfate), tetradecyl sulfate (myristyl sulfate), and hexadecyl sulfate (cetyl sulfate) are particularly useful surfactants for many applications. Sodium lauryl sulfate, for example, is widely used in topical creams, lotions and other preparations used for pharmaceutical or cosmetic purposes. A mixture of sodium lauryl sulfate and sodium myristyl sulfate is used commercially as a wetting agent, primarily in the paper industry. It is well known that surfactants may denature proteins when present in aqueous solutions in sufficient concentrations because the surface activity may affect peptide conformation.

[3] = Release from coated medicated dimethylpolysiloxane rods into water; assay type: physicochemical
Method: Dimethylpolysiloxane rubber rods (3 mm. diameter) containing 25% (W/W) sodium n-tetradecyl sulfate are prepared by the procedure described in Example 3, Method B. The rods are cut into one-inch pieces. A coating solution is prepared by dissolving 12.5 grams of dimethylpolysiloxane elastomer (DOW-Corning MDX-4-4210) in 37.5 ml of methylene chloride and then dissolving 1.88 grams of curing agent (Dow-Corning MDX-4-4210) therein. A straight pin is placed in the end of each one inch piece of rod. The piece of rod, held by the pin, is dipped into the above solution, and the rod is withdrawn from the solution and drained. The piece of rod is rotated as methylene chloride evaporates. The coated rods are placed in an oven at 120° C. for 10 minutes to cure the coating. The coated rods are then placed in a vacuum oven at 40° C. overnight to remove all methylene chloride. A second and third coat can be applied by the above method.
The release of sodium n-tetradecyl sulfate from the coated medicated rods, prepared as above-described, into water is shown in Table 10, below:
^(a) Weight of rods: 500 mg.; amount of water added: 10 ml.;
temperature: 37° C.; active compound determined by methylene blue

[4] = tested on: virgin dutch belted female rabbit; test: Antifertility effect by intravaginal administration (K-Y jelly mixture); assay type: in vivo; conditions: 1 ml of K-Y jelly mixed with equal volume of 10 mg./ml. solution, 4 animals
Method: Equal volumes of K-Y-jelly® and either Ca^++ free Ringer's solution or a 10 mg./ml. solution of the compound to be tested in Ca^++ free Ringer's solution are well mixed. One milliliter of this is placed into the vagina of a virgin dutch belted female rabbit using a syringe. The female is then immediately bred to a fertile buck. The female is injected I.V. with […] of human chorionic gonadotrophin to assure a good ovulation rate.
After approximately 14 days the females are sacrificed by cervical dislocation and the genital system examined for the number of embryos.

[5] = tested on: rabbits; test: Efficacy in vivo, rods sutured into both uterine horns, bred weekly; parameters: species or system rabbit; conditions: five rabbits, rods 20% (W/W) in both uterine horns, bred weekly for 225 days
Description: (b) Five rabbits having rods containing 20% (W/W) sodium tetradecyl
sulfate (as described above) sutured into both uterine horns were bred

In the case of CCCCCCCCCCCCCCOS(=O)(=O)[O-].[Na+] [n-tetradecyl, sodium n-tetradecyl sulfate], the “Amount of sodium n-tetradecyl sulfate released. (μg. per day)” value ([1]; after seven days) is reported as 760 μg. per day and 470 μg. per day and 961 μg. per day and 277 μg. per day and 894 μg. per day, the “Amount of sodium n-tetradecyl sulfate released. (μg. per day)” value ([1]; after thirty-two days) is reported as 644 μg. per day and 522 μg. per day and 288 μg. per day and the “No. of Embryos (per animal)” value ([1]; bred after seven days) is reported as 0 and 8 and 5. For the same compound, the “No. of Embryos (per animal)” value ([1]; bred after thirty-two days) was 0 and 3, the classical spermicidal activity [2] was “does not show classical spermicidal activity” and the “Amount of sodium n-tetradecyl sulfate released (mg. per 7 days)” value (shortened to “Amount … (mg. per 7 days)”) ([3]; 1 coat, Days 7, 500 mg rod, 25% W/W, 10 ml water 37° C.) was 0 mg. per 7 days. For the same compound, the “Amount … (mg. per 7 days)” value ([3]; 1 coat, Days 14) was 0.14 mg. per 7 days, the “Amount … (mg. per 7 days)” value ([3]; 1 coat, Days 21) was 77.4 mg. per 7 days and the “Amount … (mg. per 7 days)” value ([3]; 1 coat, Days 28) was 414.0 mg. per 7 days. The “Amount … (mg. per 7 days)” value ([3]; 1 coat, Days 35) was 128.0 mg. per 7 days, the “Amount … (mg. per 7 days)” value ([3]; 1 coat, Days 42) was 586.0 mg. per 7 days and the “Amount … (mg. per 7 days)” value ([3]; 1 coat, Days 49) was 370.0 mg. per 7 days. The “Amount … (mg. per 7 days)” value ([3]; 1 coat, Days 56) was 524.0 mg. per 7 days, the “Amount … (mg. per 7 days)” value ([3]; 1 coat, Days 63) was 571.0 mg. per 7 days and the “Amount … (mg. per 7 days)” value ([3]; 1 coat, Days 70) was 524.0 mg. per 7 days. The “Amount … (mg. per 7 days)” value ([3]; 1 coat, Days 77) was 471.0 mg. per 7 days, the “Amount … (mg. per 7 days)” value ([3]; 1 coat, Days 84) was 386.0 mg. per 7 days and the “Amount … (mg. per 7 days)” value ([3]; 1 coat, Days 91) was 330.0 mg. per 7 days. The “Amount … (mg. per 7 days)” value ([3]; 1 coat, Days 98) was 349.0 mg. per 7 days, the “Amount … (mg. per 7 days)” value ([3]; 1 coat, Days 105) was 240.0 mg. per 7 days and the “Amount … (mg. per 7 days)” value ([3]; 1 coat, Days 112) was 329.0 mg. per 7 days. The “Amount … (mg. per 7 days)” value ([3]; 1 coat, Days 119) was 286.0 mg. per 7 days, the “Amount … (mg. per 7 days)” value ([3]; 1 coat, Days 126) was 430.0 mg. per 7 days and the “Amount … (mg. per 7 days)” value ([3]; 2 coat, Days 7) was 0 mg. per 7 days. For the same compound, the “Amount … (mg. per 7 days)” value ([3]; 2 coat, Days 14) was 0 mg. per 7 days, the “Amount … (mg. per 7 days)” value ([3]; 2 coat, Days 21) was “.03 mg. per 7 days” and the “Amount … (mg. per 7 days)” value ([3]; 2 coat, Days 28) was 628.0 mg. per 7 days. The “Amount … (mg. per 7 days)” value ([3]; 2 coat, Days 35) was 124.0 mg. per 7 days, the “Amount … (mg. per 7 days)” value ([3]; 2 coat, Days 42) was 96.0 mg. per 7 days and the “Amount … (mg. per 7 days)” value ([3]; 2 coat, Days 49) was 186.0 mg. per 7 days. For the same compound, the “Amount … (mg. per 7 days)” value ([3]; 2 coat, Days 56) was 135.0 mg. per 7 days, the “Amount … (mg. per 7 days)” value ([3]; 2 coat, Days 63) was 183.0 mg. per 7 days and the “Amount … (mg. per 7 days)” value ([3]; 2 coat, Days 70) was 174.0 mg. per 7 days. For the same compound, the “Amount … (mg. per 7 days)” value ([3]; 2 coat, Days 77) was 229.0 mg. per 7 days, the “Amount … (mg. per 7 days)” value ([3]; 2 coat, Days 84) was 170.0 mg. per 7 days and the “Amount … (mg. per 7 days)” value ([3]; 2 coat, Days 91) was 200.0 mg. per 7 days. For the same compound, the “Amount … (mg. per 7 days)” value ([3]; 2 coat, Days 98) was 190.0 mg. per 7 days, the “Amount … (mg. per 7 days)” value ([3]; 2 coat, Days 105) was 224.0 mg. per 7 days and the “Amount … (mg. per 7 days)” value ([3]; 2 coat, Days 112) was 121.0 mg. per 7 days. For the same compound, the “Amount … (mg. per 7 days)” value ([3]; 2 coat, Days 119) was 100.0 mg. per 7 days, the “Amount … (mg. per 7 days)” value ([3]; 2 coat, Days 126) was 92.0 mg. per 7 days and the “Amount … (mg. per 7 days)” value ([3]; 3 coat, Days 7) was 0 mg. per 7 days. The “Amount … (mg. per 7 days)” value ([3]; 3 coat, Days 14) was “.02 mg. per 7 days”, the “Amount … (mg. per 7 days)” value ([3]; 3 coat, Days 21) was 0 mg. per 7 days and the “Amount … (mg. per 7 days)” value ([3]; 3 coat, Days 28) was 10.0 mg. per 7 days. For the same compound, the “Amount … (mg. per 7 days)” value ([3]; 3 coat, Days 35) was 142.0 mg. per 7 days, the “Amount … (mg. per 7 days)” value ([3]; 3 coat, Days 42) was 0 mg. per 7 days and the “Amount … (mg. per 7 days)” value ([3]; 3 coat, Days 49) was 186.0 mg. per 7 days. The “Amount … (mg. per 7 days)” value ([3]; 3 coat, Days 56) was 143.0 mg. per 7 days, the “Amount … (mg. per 7 days)” value ([3]; 3 coat, Days 63) was 194.0 mg. per 7 days and the “Amount … (mg. per 7 days)” value ([3]; 3 coat, Days 70) was 174.0 mg. per 7 days. The “Amount … (mg. per 7 days)” value ([3]; 3 coat, Days 77) was 157.0 mg. per 7 days, the “Amount … (mg. per 7 days)” value ([3]; 3 coat, Days 84) was 160.0 mg. per 7 days and the “Amount … (mg. per 7 days)” value ([3]; 3 coat, Days 91) was 140.0 mg. per 7 days. For the same compound, the “Amount … (mg. per 7 days)” value ([3]; 3 coat, Days 98) was 159.0 mg. per 7 days, the “Amount … (mg. per 7 days)” value ([3]; 3 coat, Days 105) was 196.0 mg. per 7 days and the “Amount … (mg. per 7 days)” value ([3]; 3 coat, Days 112) was 157.0 mg. per 7 days. For the same compound, the “Amount … (mg. per 7 days)” value ([3]; 3 coat, Days 119) was 150.0 mg. per 7 days, the “Amount … (mg. per 7 days)” value ([3]; 3 coat, Days 126) was 156.0 mg. per 7 days and the “Avg. No. of Embryos per animal” value [4] was 0. The No. of embryos [4] was 0 and the pregnancies [5] was “without any pregnancies noted”.

From US4264577A, “Contraceptive methods and compositions” (Eli Lilly and Company, priority 1980, dated 1981)
